Like-named read-outs stand apart in the source and are kept apart here.
Assays:
MOLM-13 cells = assay: Cell viability assay (CellTiter-Glo) in MOLM-13 cells; type: cell-based
Experimental: (§1) Cell Culture: RS4;11, MV4;11, MOLM-13 and other cells were cultured at 37° C. with 5% CO2 in RPMI 1640 or DMEM Medium supplemented with 10% fetal bovine serum. Cells were authenticated using the short tandem repeat (STR) assays. Mycoplasma test results were negative.
Cell viability assays: Cells were seeded at a density of 5000 cells per well in 96-well assay plates and treated with test compounds following a 8-point or 12-point 3-fold serial dilution. Three days later, cell viability was determined using the CellTiter-Glo assay kit according to the manufacturer's instructions. The dose-response curves were determined and IC50 values were calculated using the GraphPad Prism software following a nonlinear regression (least squares fit) method. […]

MV4;11 cells = assay: Cell viability assay (CellTiter-Glo) in MV4;11 cells; type: cell-based; conditions: read-out: MV4
Experimental: as §1
Cell viability assays: Cells were seeded at a density of 5000 cells per well in 96-well assay plates and treated with test compounds following a 8-point or 12-point 3-fold serial dilution. Three days later, cell viability was determined using the CellTiter-Glo assay kit according to the manufacturer's instructions. The dose-response curves were determined and IC50 values were calculated using the GraphPad Prism software following a nonlinear regression (least squares fit) method.
The IC50 values (nM) of each compound were determined in MV4;11 and MOLM-13 cells with or without gilteritinib (10 nM for MV4;11; and 20 nM for MOML-13) as described in the Materials and Methods subsection and calculated using the GraphPad Prism 5.0 software.

[1] = Homo sapiens, 72 h, MOLM-13 cells, compound alone, three days, read-out: MOLM-13 IC50
[2] = Homo sapiens, MV4-11, 72 h, MV4;11 cells, compound alone, three days, 11 IC50
[3] = MOLM-13 cells, with gilteritinib, three days, read-out: MOLM-13 IC50 (nM) + 10 nM Gil
[4] = MV4;11 cells, with 10 nM gilteritinib, three days, 11 IC50 (nM) + 10 nM Gil

IC50 (MOLM-13 cells; [1])	IC50 (MV4;11 cells; [2])	IC50 (MOLM-13 cells; [3])	IC50 (MV4;11 cells; [4])	Structure (SMILES)	IC50 (MOLM-13 cells; Homo sapiens, MOLM-13, 72 h, read-out: MOLM-13 IC50 (nM))	IC50 (MOLM-13 cells; read-out: MOLM-13 IC50 (nM) + 10 nM Gil, MOLM-13 cells, with gilteritinib, three days)	IC50 (MV4;11 cells; Homo sapiens, MV4-11, 72 h, 11 IC50 (nM))	IC50 (MV4;11 cells; 11 IC50 (nM) + 10 nM Gil, MV4;11 cells, with 10 nM gilteritinib, three days)
10 to 100 nM	10 to 100 nM	< 10 nM	< 10 nM	O=C1CCC(N2C(=O)c3ccc(NC[C@H]4C[C@H](n5cc(-c6cccc(N7CCCC7)n6)c(C6CC6)n5)C4)cc3C2=O)C(=O)N1 (relative stereo) [GS-748, 5-(((Trans-3-(3-cyclopropyl-4-(6-(pyrrolidin-1-yl)pyridin-2-yl)-1H-pyrazol-1-yl)cyclobutyl)methyl)amino)-2-(2,6-dioxopiperidin-3-yl)isoindoline-1,3-dione]				
< 10 nM	< 10 nM	< 10 nM	< 10 nM	O=C1CCC(N2C(=O)c3ccc(NC[C@H]4C[C@H](n5cc(-c6ncccc6OC6CC6)c(C6CC6)n5)C4)cc3C2=O)C(=O)N1 (stereo partly drawn) [GS-641, 5-(((Trans-3-(4-(3-cyclopropoxypyridin-2-yl)-3-cyclopropyl-1H-pyrazol-1-yl)cyclobutyl)methyl)amino)-2-(2,6-dioxopiperidin-3-yl)isoindoline-1,3-dione]				
> 1000 nM	> 1000 nM	10 to 100 nM	100 to 1000 nM	O=C1CCC(N2C(=O)c3ccc(NC[C@H]4C[C@H](n5cc(-c6cccc(N7CC(O)C7)n6)c(C6CC6)n5)C4)cc3C2=O)C(=O)N1 (stereo partly drawn) [GS-647, 5-(((Trans-3-(3-cyclopropyl-4-(6-(3-hydroxyazetidin-1-yl)pyridin-2-yl)-1H-pyrazol-1-yl)cyclobutyl)methyl)amino)-2-(2,6-dioxopiperidin-3-yl)isoindoline-1,3-dione]				
100 to 1000 nM	10 to 100 nM	10 to 100 nM	10 to 100 nM	CN(C)c1ccccc1-c1cn([C@H]2C[C@H](CNc3ccc4c(c3)C(=O)N(C3CCC(=O)NC3=O)C4=O)C2)nc1C1CC1 (stereo partly drawn) [GS-650, 5-(((trans-3-(3-Cyclopropyl-4-(2-(dimethylamino)phenyl)-1H-pyrazol-1-yl)cyclobutyl)methyl)amino)-2-(2,6-dioxopiperidin-3-yl)isoindoline-1,3-dione]				
> 1000 nM	> 1000 nM	100 to 1000 nM	10 to 100 nM	O=C1CCC(N2C(=O)c3ccc(NC[C@H]4C[C@H](n5cc(-c6ccccc6N6CCNCC6)c(C6CC6)n5)C4)cc3C2=O)C(=O)N1 (stereo partly drawn) [GS-652, 5-(((Trans-3-(3-cyclopropyl-4-(2-(piperazin-1-yl)phenyl)-1H-pyrazol-1-yl)cyclobutyl)methyl)amino)-2-(2,6-dioxopiperidin-3-yl)isoindoline-1,3-dione]				
100 to 1000 nM	> 1000 nM	100 to 1000 nM	10 to 100 nM	O=C1CCC(N2C(=O)c3ccc(NC[C@H]4C[C@H](n5cc(-c6ccccc6C6CCNCC6)c(C6CC6)n5)C4)cc3C2=O)C(=O)N1 (stereo partly drawn) [GS-654, 5-(((Trans-3-(3-cyclopropyl-4-(2-(piperidin-4-yl)phenyl)-1H-pyrazol-1-yl)cyclobutyl)methyl)amino)-2-(2,6-dioxopiperidin-3-yl)isoindoline-1,3-dione]				

The next lines start with the compound.

Structure (SMILES)	IC50 (MOLM-13 cells; [1])	IC50 (MV4;11 cells; [2])	IC50 (MOLM-13 cells; [3])	IC50 (MV4;11 cells; [4])	IC50 (MOLM-13 cells; Homo sapiens, MOLM-13, 72 h, read-out: MOLM-13 IC50 (nM))	IC50 (MOLM-13 cells; read-out: MOLM-13 IC50 (nM) + 10 nM Gil, MOLM-13 cells, with gilteritinib, three days)	IC50 (MV4;11 cells; Homo sapiens, MV4-11, 72 h, 11 IC50 (nM))	IC50 (MV4;11 cells; 11 IC50 (nM) + 10 nM Gil, MV4;11 cells, with 10 nM gilteritinib, three days)
Cc1nc(-c2cn([C@H]3C[C@@H]3CNc3ccc4c(c3)C(=O)N(C3CCC(=O)NC3=O)C4=O)nc2C2CC2)ccc1F (relative stereo) [GS-643, 5-(((Trans-2-(3-cyclopropyl-4-(5-fluoro-6-methylpyridin-2-yl)-1H-pyrazol-1-yl)cyclopropyl)methyl)amino)-2-(2,6-dioxopiperidin-3-yl)isoindoline-1,3-dione]	> 1000 nM	> 1000 nM						
O=C1CCC(N2C(=O)c3ccc(NC[C@H]4C[C@H](n5cc(-c6cc7c(cn6)cnn7CC(F)(F)F)c(C6CC6)n5)C4)cc3C2=O)C(=O)N1 (relative stereo) [GS-704, 5-(((Trans-3-(3-cyclopropyl-4-(1-(2,2,2-trifluoroethyl)-1H-pyrazolo[4,3-c]pyridin-6-yl)-1H-pyrazol-1-yl)cyclobutyl)methyl)amino)-2-(2,6-dioxopiperidin-3-yl)isoindoline-1,3-dione]	10 to 100 nM	10 to 100 nM	< 10 nM	< 10 nM				
O=C1CCC(N2C(=O)c3ccc(OC[C@H]4C[C@H](n5cc(-c6cnc7ccccc7n6)c(C6CC6)n5)C4)cc3C2=O)C(=O)N1 (stereo partly drawn) [GS-640, 5-((Trans-3-(3-cyclopropyl-4-(quinoxalin-2-yl)-1H-pyrazol-1-yl)cyclobutyl)methoxy)-2-(2,6-dioxopiperidin-3-yl)isoindoline-1,3-dione]	> 1000 nM	> 1000 nM	100 to 1000 nM	100 to 1000 nM				
O=C1CCC(N2C(=O)c3ccc(NCCCn4cc(-c5cnc6ccccc6n5)c(C5CC5)n4)cc3C2=O)C(=O)N1 (centres unmarked) [GS-642, 5-((3-(3-Cyclopropyl-4-(quinoxalin-2-yl)-1H-pyrazol-1-yl)propyl)amino)-2-(2,6-dioxopiperidin-3-yl)isoindoline-1,3-dione]	10 to 100 nM	10 to 100 nM	< 10 nM	< 10 nM				
O=C1CCC(N2C(=O)c3ccc(NC[C@H]4C[C@H](n5cc(-c6cnc7ccc(N8CC(O)C8)cc7n6)c(C6CC6)n5)C4)cc3C2=O)C(=O)N1 (stereo partly drawn) [GS-644, 5-(((Trans-3-(3-cyclopropyl-4-(7-(3-hydroxyazetidin-1-yl)quinoxalin-2-yl)-1H-pyrazol-1-yl)cyclobutyl)methyl)amino)-2-(2,6-dioxopiperidin-3-yl)isoindoline-1,3-dione]	10 to 100 nM	10 to 100 nM	< 10 nM	< 10 nM				
Cc1nc(-c2cn(CC3CC3CNc3ccc4c(c3)C(=O)N(C3CCC(=O)NC3=O)C4=O)nc2C2CC2)ccc1F (centres unmarked) [GS-645, 5-(((2-((3-Cyclopropyl-4-(5-fluoro-6-methylpyridin-2-yl)-1H-pyrazol-1-yl)methyl)cyclopropyl)methyl)amino)-2-(2,6-dioxopiperidin-3-yl)isoindoline-1,3-dione]	> 1000 nM	> 1000 nM	100 to 1000 nM					
COC1CCCCC1c1cn([C@H]2C[C@H](CNc3ccc4c(c3)C(=O)N(C3CCC(=O)NC3=O)C4=O)C2)nc1C1CC1 (stereo partly drawn) [GS-646, 5-(((Trans-3-(3-cyclopropyl-4-(2-methoxycyclohexyl)-1H-pyrazol-1-yl)cyclobutyl)methyl)amino)-2-(2,6-dioxopiperidin-3-yl)isoindoline-1,3-dione]	100 to 1000 nM	10 to 100 nM	10 to 100 nM	10 to 100 nM				
O=C1CCC(N2C(=O)c3ccc(NC[C@H]4C[C@H](n5nc(C6CC6)c6nccnc65)C4)cc3C2=O)C(=O)N1 (stereo partly drawn) [GS-648, 5-(((Trans-3-(3-cyclopropyl-1H-pyrazolo[3,4-b]pyrazin-1-yl)cyclobutyl)methyl)amino)-2-(2,6-dioxopiperidin-3-yl)isoindoline-1,3-dione]	> 1000 nM	> 1000 nM	100 to 1000 nM					
Cn1ncc2ccnc(-c3cn([C@H]4C[C@H](CNc5ccc6c(c5)C(=O)N(C5CCC(=O)NC5=O)C6=O)C4)nc3C3CC3)c21 (stereo partly drawn) [GS-649, 5-(((trans-3-(3-Cyclopropyl-4-(1-methyl-1H-pyrazolo[3,4-c]pyridin-7-yl)-1H-pyrazol-1-yl)cyclobutyl)methyl)amino)-2-(2,6-dioxopiperidin-3-yl)isoindoline-1,3-dione]	10 to 100 nM	< 10 nM	< 10 nM	< 10 nM				
O=C1CCC(N2Cc3cc(NC[C@H]4C[C@H](n5cc(-c6cnc7ccccc7n6)c(C6CC6)n5)C4)ccc3C2=O)C(=O)N1 (stereo partly drawn) [GS-651, 3-(5-(((trans-3-(3-Cyclopropyl-4-(quinoxalin-2-yl)-1H-pyrazol-1-yl)cyclobutyl)methyl)amino)-1-oxoisoindolin-2-yl)piperidine-2,6-dione]	10 to 100 nM	< 10 nM	< 10 nM	< 10 nM				
O=C1CCC(N2C(=O)c3ccc(NC[C@H]4C[C@H](n5cc(-c6cccc(N7CCC7)c6)c(C6CC6)n5)C4)cc3C2=O)C(=O)N1 (stereo partly drawn) [GS-653, 5-(((Trans-3-(4-(3-(azetidin-1-yl)phenyl)-3-cyclopropyl-1H-pyrazol-1-yl)cyclobutyl)methyl)amino)-2-(2,6-dioxopiperidin-3-yl)isoindoline-1,3-dione]					> 1000 nM	10 to 100 nM	100 to 1000 nM	10 to 100 nM
Cc1nc(-c2cn([C@H]3C[C@H](CNc4ccc5c(c4)CN([C@@H]4CCC(=O)NC4=O)C5=O)C3)nc2C2CC2)ccc1F [GS-801, (R)-3-(5-(((trans-3-(3-cyclopropyl-4-(5-fluoro-6-methylpyridin-2-yl)-1H-pyrazol-1-yl)cyclobutyl)methyl)amino)-1-oxoisoindolin-2-yl)piperidine-2,6-dione]	10 to 100 nM							

Reference: patent US20250221988A1 (Cullgen (Shanghai), Inc., priority 2022, published 2025)
